# Reference: patent USRE39723E1, “Semi-synthetic taxanes with antitumor and antiangiogenetic activities” (Indena S.p.A., priority 2000, dated 2007)
# How the values were obtained:
# [1] = tested on: angiogenesis induced by FGF-2 adsorbed on a Matrigel pellet; assay: Matrigel test, in vivo antiangiogenetic activity (hemoglobin content in pellets); design: species or system C57BL6N mice; conditions: after 7 days
# Protocol: The antiangiogenic activity was evaluated by means of the Matrigel test, in which angiogenesis is induced by FGF-2 ([…]) adsorbed on a Matrigel pellet (12.5 mg/ml, 0.5 mL) injected subcutaneously in C57BL6N mice.
# The tested compound was administered through the oral route daily or through the intraperitoneal route on alternate days, at the shown concentration. After 7 days, the angiogenic response was evaluated by measuring the hemoglobin content in the pellets, according to the procedure by Drabkin.
compound,measurement,setting,value
CC(=O)O[C@H]1C(=O)[C@@]2(C)[C@H]([C@H](OC(=O)c3ccccc3)[C@]3(O)C[C@H](OC(=O)[C@H](O)[C@@H](NC(=O)c4ccccc4)c4ccccc4)C(C)=C1C3(C)C)[C@]1(OC(C)=O)CO[C@@H]1C[C@@H]2O [Paclitaxel],neuro-toxicity (tremors),"mouse, in vivo",induces tremors
same,weight loss,"nude mouse with human tumor cells, dose effective in inhibiting tumor growth (same antitumor activity)",up to 20%
FGF-2: growth factor adsorbed on the Matrigel pellet to induce angiogenesis [reference compound],Hemoglobin,"[1]; FGF-2 alone (150 mg/pellet) on Matrigel pellet, no test compound",0.03 ± 0.001 g/dL
same,% (change of hemoglobin content),[1]; FGF-2 alone versus control,+300%
"13-[(2R, 3S)-3-iso-butyl-2-hydroxy-3-tert-butoxycarbonylamino-propanoyl]-C-seco-10-dehydro-10-deacetyl-7,9-bis-acetyl-baccatine III [Example II]",% (change of hemoglobin content),[1]; 90 mg/kg i.p. on alternate days,−50%
same,Hemoglobin,"[1]; 90 mg/kg i.p. on alternate days, FGF-2 Matrigel pellet s.c.",0.015 ± 0.001 g/dL
same,% (change of hemoglobin content),[1]; 150 mg/kg p.o. daily,−70%
same,Hemoglobin,"[1]; 150 mg/kg p.o. daily, FGF-2 Matrigel pellet s.c.",0.009 ± 0.001 g/dL
"13-[(2R, 3S)-3-isobutyl-2-hydroxy-3-tert-butoxycarbonylamino-propanoyl]-C-seco-10-dehydro-10-deacetyl-7,9-bis-acetyl-baccatine III 1,14-carbonate [Example VII]",% (change of hemoglobin content),[1]; 50 mg/kg i.p. on alternate days,−40%
same,Hemoglobin,"[1]; 50 mg/kg i.p. on alternate days, FGF-2 Matrigel pellet s.c.",0.014 g/dL
same,% (change of hemoglobin content),[1]; 100 mg/kg p.o. daily,−70%
same,Hemoglobin,"[1]; 100 mg/kg p.o. daily, FGF-2 Matrigel pellet s.c.",0.009 g/dL
